Test results published in patent US20070219767A1, “ATOMIC COORDINATES OF ALBUMIN DRUG COMPLEXES AND METHOD OF USE OF PHARMACEUTICAL DEVELOPMENT” (priority 2003, published 2007).
Entries after “also recorded” stand apart in the source; their conditions may differ. Where two headings read alike, the source gives them in different places.

Assays:
human serum albumin [1] = target: T1, human serum albumin (Homo sapiens, UniProt P02768); test: X-ray crystallography of human serum albumin/drug complexes: binding location; set-up: Domain I (1 through 192); Domain II (193 through 395);Domain III (396 THROUGH 585); details: for Albumin Binding Location: Table I, Phase I, subdomain of HSA where the drug is found in the crystal complex
T1 sequence (P02768 25-609): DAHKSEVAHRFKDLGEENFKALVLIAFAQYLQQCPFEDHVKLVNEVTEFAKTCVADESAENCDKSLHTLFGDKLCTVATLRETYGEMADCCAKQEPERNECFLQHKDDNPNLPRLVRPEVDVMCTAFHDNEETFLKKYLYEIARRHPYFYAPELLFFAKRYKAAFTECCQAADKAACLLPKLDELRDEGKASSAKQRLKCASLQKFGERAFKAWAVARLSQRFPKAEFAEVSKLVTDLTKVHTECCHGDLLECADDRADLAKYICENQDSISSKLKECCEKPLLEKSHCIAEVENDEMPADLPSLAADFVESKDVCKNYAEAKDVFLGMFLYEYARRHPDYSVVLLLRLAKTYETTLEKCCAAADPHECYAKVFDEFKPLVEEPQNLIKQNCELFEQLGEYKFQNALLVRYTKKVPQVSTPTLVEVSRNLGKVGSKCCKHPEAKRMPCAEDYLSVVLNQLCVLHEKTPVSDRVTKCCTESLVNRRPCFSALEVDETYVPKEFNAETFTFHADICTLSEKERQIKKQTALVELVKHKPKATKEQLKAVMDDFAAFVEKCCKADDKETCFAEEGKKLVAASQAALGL
Excerpt: This information was derived from crystallization of the protein/ligand to create a protein/ligand complex and determining the atomic structure of the resulting complex by x-ray diffraction. The ligand may be any ligand capable of binding to the human serum albumin protein, and is preferably a ligand that binds to one of the binding sites described herein.
One method of obtaining information regarding the structural; characteristics of the albumin binding regions is through protein crystallization processes.
By applying standard crystallization protocols to the above described crystallizable compositions, crystals of the human serum albumin complex may be obtained. This, an even further aspect of this invention relates to a method of preparing human serum albumin complex-containing crystals. The method comprises the steps of • (a) obtaining a crystallizable composition comprising a human serum albumin protein, divalent cations, and a ligand capable of binding to the protein, and • (b) subjecting the composition of step (a) to conditions which promote crystallization.
The “active site binding pockets” or “active site” of human serum albumin refers to one of several areas determined experimentally on the human serum albumin protein surface where substrates bind.

human serum albumin [2] = target: T1, human serum albumin; details: prior knowledge on non-drugs such as gases; cited from earlier work
[3] = Table II, Phase II, refined coordinates, listed residues within 5 Å of bound ligand

Compound | Binding site of the Drug-Albumin Complex (site heading the list of contacting residues) (human serum albumin [1]; [3]) | also measured
O=C(O)CCNC(=O)c1ccc(/N=N/c2ccc(O)c(C(=O)O)c2)cc1 [Balsalazide] | Site IIA-IIIB, S401, K402, N405, A406, L407, V409, R410, K413, | –
CCC(=O)O[C@](Cc1ccccc1)(c1ccccc1)[C@H](C)CN(C)C [Propoxyphene] | Site IIIB, F502, F507, F509, A528, E531, L532, H535, V547, D550, | –
COc1ccc(Cl)cc1C(=O)NCCc1ccc(S(=O)(=O)NC(=O)NC2CCCCC2)cc1 [Glyburide] | Site IB, L115, V116, R117, P118, M123, A126, F134, K137, Y138, | –
O=C(c1ccccc1)c1ccc2n1CC[C@@H]2C(=O)O [S-Ketorolac] | Site IIIB, F507, F509, I513, L516, R521, K524, K525, A528, L532, | –
CN(C/C=C/C#CC(C)(C)C)Cc1cccc2ccccc12 [Terbinafine] | – | Albumin Binding Location (human serum albumin [1]): IIIA
CCCc1nc2c(C)cc(-c3nc4ccccc4n3C)cc2n1Cc1ccc(-c2ccccc2C(=O)O)cc1 [Telmisartan] | Site IB, L115, V116, R117, P118, M123, F134, K137, Y138, E141, | –
Hemin | Site IB, R114, L115, V116, R117, P118, M123, F134, L135, Y138, | –
O=C(Oc1ccccc1C(=O)O)c1ccccc1O [Salsalate] | Site IIIB, F509, I513, R521, K524, K525, A528, M548, F551, A552, | –
FC(F)(F)C(Cl)Br (stereo not shown) [halothane] | – | HSA site with binding affinity, previously known (human serum albumin [2]): IIA-IIB
C[C@]12C=CC(=O)C=C1CC[C@@H]1[C@@H]2C(=O)C[C@@]2(C)[C@H]1CC[C@]2(O)C(=O)CO [Prednisone] | – | Albumin Binding Location (human serum albumin [1]): IIA
COc1ccc2cc(CC(=O)O)ccc2c1 [6-MNA] | Site IB, R114, L115, R117, M123, L135, Y138, L139, I142, H146,; also recorded: Site IIA-IIBR209, A210, A213, W214, D324, L327, G328, L331,; also recorded: Site IIIA, L387, I388, N391, C392, F403, L407, R410, Y411, K414, | –
O=C(c1ccccc1)c1ccc2n1CCC2C(=O)O (stereo not shown) [Ketorolac] | Site IB, L115, R117, Y138, I142, H146, F157, Y161, L182, D183,; also recorded: Site IIIA, L387, I388, N391, C392, F403, L407, R410, Y411, K414, | –
CCc1cccc2c3c([nH]c12)[C@](CC)(CC(=O)O)OCC3 [S-Etodolac] | Site IIIA, P384, L387, I388, N391, F403, L407, R410, Y411, K414, | –
O=C(c1ccccc1)c1ccc2n1CC[C@H]2C(=O)O [R-Ketorolac] | Site IB, R117, Y138, I142, H146, F149, L154, F157, Y161, L182, | –
Cc1cccc(Nc2ccccc2C(=O)O)c1C [Mefenamic Acid] | Site IIIA, E383, P384, L387, N391, C392, F403, L407, R410, Y411, | –
CCCNC(=O)NS(=O)(=O)c1ccc(Cl)cc1 [Chlorpropamide] | – | Albumin Binding Location (human serum albumin [1]): IIA, IIIA
CC(=O)[C@]1(O)Cc2c(O)c3c(c(O)c2[C@@H](O[C@H]2C[C@H](N)[C@H](O)[C@H](C)O2)C1)C(=O)c1ccccc1C3=O [Idarubicin] | Site IB, F036, F037, L115, V116, R117, P118, V122, M123, A126, | –
CCc1cccc2c3c([nH]c12)C(CC)(CC(=O)O)OCC3 (stereo not shown) [Etodolac] | Site IB, L115, Y138, E141, I142, R145, H146, Y161, L182, L185,; also recorded: Site IIIA, P384, L387, I388, N391, F403, L407, R410, Y411, K414, | –
CC[C@H](C)C(=O)O[C@H]1C[C@@H](C)C=C2C=C[C@H](C)[C@H](CC[C@@H]3C[C@@H](O)CC(=O)O3)[C@H]21 [Lovastatin] | – | Albumin Binding Location (human serum albumin [1]): IIA
CC1(C)S[C@@H]2[C@H](NC(=O)COc3ccccc3)C(=O)N2[C@H]1C(=O)O [Penicillin V] | – | Albumin Binding Location (human serum albumin [1]): IIA
Cc1nc2n(c(=O)c1CCN1CCC(c3noc4cc(F)ccc34)CC1)CCCC2 [Risperidone] | Site IIIA, L387, I388, N391, C392, F403, L407, R410, Y411, K414, | –
CN1C(C(=O)Nc2ccccn2)=C(O)c2ccccc2S1(=O)=O [Piroxicam] | Site IIA, K195, Q196, L198, K199, F211, W214, A215, R218, L219, | –

Compound | Binding site of the Drug-Albumin Complex (site heading the list of contacting residues) (human serum albumin [1]; [3]) | also measured
COc1cc([C@@H]2c3cc4c(cc3[C@@H](O[C@@H]3O[C@@H]5CO[C@@H](c6cccs6)O[C@H]5[C@H](O)[C@H]3O)[C@H]3COC(=O)[C@H]23)OCO4)cc(OC)c1O [Teniposide] | Site IB, L115, V116, R117, P118, A126, F134, K137, Y138, E141, | –
CC1=C(/C=C/C(C)=C/C=C/C(C)=C/C(=O)O)C(C)(C)CCC1 [Tertinoin] | – | Albumin Binding Location (human serum albumin [1]): IIIA
Cc1noc(NS(=O)(=O)c2ccc(N)cc2)c1C [Sulfisoxazole] | – | Binding site of the Drug-Albumin Complex (site heading the list of contacting residues) (human serum albumin [1]): Site IB, L115, V116, R117, P118, M123, Y138, I142, Y161, L182,
CC1(C)S[C@@H]2[C@H](NC(=O)Cc3ccccc3)C(=O)N2[C@H]1C(=O)O [Penecillin G] | Site IIA, Y150, K195, K199, F211, W214, A215, R218, L219, R222, | –
O=C(O)CCc1nc(-c2ccccc2)c(-c2ccccc2)o1 [Oxaprozin] | Site IIIA, P384, L387, I388, N391, C392, F403, L407, R410, Y411, | –
CCc1nn(CCCN2CCN(c3cccc(Cl)c3)CC2)c(=O)n1CCOc1ccccc1 [Nefazodone] | – | Albumin Binding Location (human serum albumin [1]): IIIA
CC[C@@]1(O)C(=O)OCc2c1cc1n(c2=O)Cc2cc3ccccc3nc2-1 [Camptothecin] | Site IB, L115, V116, R117, M123, Y138, I142, H146, F149, L154, | –
CC(NC(C)(C)C)C(=O)c1cccc(Cl)c1 (stereo not shown) [Bupropion] | – | Albumin Binding Location (human serum albumin [1]): IIA, IIIA
CCCCC(=O)O[C@H]1CC[C@H]2[C@@H]3CCc4cc(O)ccc4[C@H]3CC[C@]12C [Estradiol Valerate] | – | Albumin Binding Location (human serum albumin [1]): IIA
COc1cc(C(=O)NS(=O)(=O)c2ccccc2C)ccc1Cc1cn(C)c2ccc(NC(=O)OC3CCCC3)cc12 [Zafirlukast] | Site IIA, Y150, E153, K195, L198, K199, S202, F211, W214, A215, | –
Cc1ccc(C)c(OCCCC(C)(C)C(=O)O)c1 [Gemfrirozil] | Site IB, L115, V116, R117, F134, L135, Y138, L139, I142, R145,; also recorded: Site IIIA, L387, R410, Y411, K414, V415, V418, L423, V426, S427, | –
CCOc1nc2cccc(C(=O)OC(C)OC(=O)OC3CCCCC3)c2n1Cc1ccc(-c2ccccc2-c2nn[nH]n2)cc1 (stereo not shown) [Candesartan Cilexitil] | Site II-III, K195, L198, K199, S202, L203, F206, G207, A210, F211,; also recorded: Site IIIA, P384, L387, I388, N391, C392, F395, F403, L407, Y411,; also recorded: Site IIIA-IIIB, L398, Y401, K402, N405, A406, V409, R410, L529, | –
CC(=O)Oc1ccccc1C(=O)O [Aspirin] | Site IIIB, F509, I513, R521, K524, K525, A528, M548, F551, A552, | –
COc1ccccc1OCCNCC(O)COc1cccc2[nH]c3ccccc3c12 (stereo not shown) [Carvedilol] | Site IIIA, P384, L387, I388, N391, F403, L407, R410, Y411, K414, | –
CC(C(=O)O)c1ccc(-c2ccccc2)c(F)c1 (stereo not shown) [Flurbiprofen] | Site IIIA, L387, I388, N391, C392, F395, F403, L407, R410, Y411, | –
Cc1ccc(Cl)c(Nc2ccccc2C(=O)O)c1Cl [Meclofenamic Acid] | Site IIIA, P384, L387, I388, N391, C392, F403, L407, R410, Y411, | –
CC[C@@]1(O)C(=O)OCc2c1cc1n(c2=O)Cc2cc3c([N+](=O)[O-])cccc3nc2-1 [9 Nitro-Camptothecin] | Site IB, L115, V116, R117, Y138, I142, H146, F149, L154, F157, | –
CC1(C)S[C@@H]2[C@H](NC(=O)C(c3ccccc3)S(=O)(=O)O)C(=O)N2[C@H]1C(=O)O (stereo partly shown) [Sulbenicillin] | Site IIA, Y150, K195, K199, W214, R218, L219, R222, L238, H242, | –
O=C1NC(=O)C(c2ccccc2)(c2ccccc2)N1 [Phenytoin] | – | Albumin Binding Location (human serum albumin [1]): IIA
CC(CN1c2ccccc2Sc2ccccc21)N(C)C (stereo not shown) [Promethazine] | Site IIB, D308, F309, N318, E321, A322, V325, F326, N329 | –
CN1C(CCl)Nc2cc(Cl)c(S(N)(=O)=O)cc2S1(=O)=O (stereo not shown) [Methayclothiazide] | – | Albumin Binding Location (human serum albumin [1]): IIA-IIB
